Columns and labels:
[1] = Modulatory activity at P-gp assessed as doxorubicin IC50 in human K562 cells at 3 uM after 72 hrs by MTT assay (Rvb doxorubicin alone IC50 = 0.023 +/- 0.004 uM)
[2] = Modulatory activity at P-gp assessed as doxorubicin IC50 in human K562/DOX cells at 3 uM after 72 hrs by MTT assay (Rvb doxorubicin alone IC50 = 2.00 +/- 0.24 uM)
[3] = Modulatory activity at P-gp assessed as doxorubicin IC50 in human K562 cells at 0.1 uM after 72 hrs by MTT assay (Rvb doxorubicin alone IC50 = 0.023 +/- 0.004 uM)
[4] = Modulatory activity at P-gp assessed as doxorubicin IC50 in human K562/DOX cells at 1 uM after 72 hrs by MTT assay (Rvb doxorubicin alone IC50 = 2.00 +/- 0.24 uM)
[5] = Modulatory activity at P-gp assessed as doxorubicin IC50 in human K562/DOX cells at 0.1 uM after 72 hrs by MTT assay (Rvb doxorubicin alone IC50 = 2.00 +/- 0.24 uM)
[6] = Modulatory activity at P-gp assessed as doxorubicin IC50 in human K562 cells at 1 uM after 72 hrs by MTT assay (Rvb doxorubicin alone IC50 = 0.023 +/- 0.004 uM)

Row | Compound | IC50 [1] | IC50 [2] | IC50 [3] | IC50 [4] | IC50 [5] | IC50 [6]
1 | COc1cc(/C=C/C(=O)OCCCCCN(C)CCCOC(=O)c2c3ccccc3cc3ccccc23)cc(OC)c1OC | 18 nM | 35 nM | 30 nM | 60 nM | 300 nM | 
2 | COc1cc(/C=C/C(=O)OCCCCN(C)CCCCOC(=O)c2c3ccccc3cc3ccccc23)cc(OC)c1OC | 19 nM | 63 nM | 22 nM | 230 nM | 830 nM | 41 nM
3 | COc1cc(/C=C/C(=O)OCCCN(C)CCCCCOC(=O)c2c3ccccc3cc3ccccc23)cc(OC)c1OC | 51 nM | 170 nM | 11 nM | 320 nM | 620 nM | 12 nM

Source: BindingDB's records for doi:10.1016/j.ejmech.2014.09.084 (University of Florence, 2014)
